Experimental data: US20230391729A1, “SUCCINATE SALTS OF N-(3-(4-(3-(DIISOBUTYLAMINO)PROPYL)PIPERAZIN-1-YL)PROPYL)-1H-BENZO[D]IMIDAZOL-2-AMINE, PREPARATION THEREOF AND USE OF THE SAME” (ALZPROTECT, priority 2020, published 2023)

System: cortical neurons cultured with microglia
Test: Neuron survival and neurite network (MAP-2) in cortical neurons after Aβ1-42 injury
Assay type: cell-based, rat
Conditions: Aβ1-42 injury 72 h, co-administered; 10 nM to 100 nM
Protocol: Rat cortical neurons cultured with microglia were cultured as described by Callizot et al. in J Neurosci Res. 2013, 91: 706-716 with modifications to include microglial cells. Pregnant female rats (Rats Wistar; Janvier Labs France) of 15 days of gestation were killed, after a deep anesthesia with CO2, by cervical dislocation. Then, fetuses were collected and immediately placed in ice-cold L15 Leibovitz medium with a 2% penicillin (10,000 U/ml) and streptomycin (10 mg/ml) solution (PS) and 1% bovine serum albumin (BSA). Cortexes were treated for 20 min at 37° C. with a trypsin-EDTA solution at a final concentration of 0.05% trypsin and 0.02% EDTA. The dissociation was stopped by addition of Dulbecco's modified Eagle's medium (DMEM) with 4.5 g/liter of glucose, containing DNAse I grade II (final concentration 0.5 mg/ml) and 10% fetal calf serum (FCS). Cells were mechanically dissociated by three forced passages through the tip of a 10-mL pipette. […] Viable cells were counted in a Neubauer cytometer, using the trypan blue exclusion test. […]
Cortical neurons were intoxicated with A3 solutions (see below) after 11 days of culture. […] This solution was gently agitated for 3 days at 37° C. in the dark and immediately used after being properly diluted in control medium to the concentrations used ([…] of Aβ1-42 preparation containing […] of Aβ oligomers (AβO) measured by WB). […]

In the case of “N-(3-(4-(3-(diisobutylamino)propyl)piperazin-1-yl)propyl)-1H-benzo[d]imidazol-2-amine sesqui-succinate salt [sesqui-succinate salt Form 1]”, the “neurite network (MAP-2 staining)” value is reported as “significantly longer” and the “neuron survival: total number of neurons (MAP-2 staining)” value is reported as “neuroprotective”.
